pIC50: −log10 of the molar value.
Key:
[1] = tested on: Notch-processing activity of the γ-secretase-complex; assay: Notch cell-free assay (NICD production from recombinant Notch substrate N99); assay type: biochemical; details: 1 μM test compound; 0.3-0.5 μM mouse Notch substrate; enriched gamma secretase; 37° C., 6 to 22 h; western blot; control GSI concentration not given
Experimental: The Notch transmembrane domain is cleaved by gamma secretase to release Notch Intracellular C-terminal Domain (NICD).
To monitor the effect of compounds on NICD production, a recombinant Notch substrate (N99) was prepared. The Notch substrate, comprised of mouse Notch fragment (V1711-E1809), an N-terminal methionine and a C-terminal FLAG sequence ([…]), was expressed in E. coli and purified on a column containing an anti-FLAG M2 affinity matrix.
A typical Notch cell-free assay consisted of 0.3-0.5 μM Notch substrate, an enriched preparation of gamma secretase and 1 μM of a test compound (compounds 16, 18 and 106 of the present invention). Controls included a gamma secretase inhibitor (GSI), such as (2S)—N-[2-(3,5-difluorophenyl)acetyl]-L-alanyl-2-phenyl-glycine 1,1-dimethylethyl ester (DAPT) or (2S)-2-hydroxy-3-methyl-N-[(1S)-1-methyl-2-oxo-2-[[(1S)-2,3,4,5-tetrahydro-3-methyl-2-oxo-1H-3-benzazepin-1-yl]amino]ethyl]-butanamide (Semagacestat), and DMSO, the final concentration of DMSO being 1%. Recombinant Notch substrate was pre-treated with 17 μM DTT (1,4-dithiothreitol) and 0.02% SDS (Sodium Dodecyl Sulfate) and heated at 65° C. for 10 min. The mixture of substrate, gamma secretase and compound/DMSO was incubated at 37° C. for 6 to 22 hours (h). Six-hour incubation was sufficient to produce the maximal amount of NICD and the cleaved product remained stable for an additional 16 H. Reaction products were processed for SDS PAGE (Sodium Dodecyl Sulfate-Poly Acrylamide Gel Electrophoresis) and western blotting. Blots were probed with an anti-Flag M2 antibody, followed by LI-COR infrared secondary antibody, and analyzed with the Odyssey Infrared Imaging System (LI-COR® Biosciences).

[2] = tested on: mouse Notch2; assay: Notch cell-based assay (N2-CHO/DL-CHO co-culture, Dual-Glo luciferase, NICD production); details: Mus musculus; N2-CHO/DL-CHO co-culture 16 H; five-point curve 3 μM-0.3 nM; read-out: average IC50 values from the Notch cell-based assay (luciferase assay readouts)
From the text: The Notch cell-based assay was based on the interaction of Notch and its ligand in a co-culture system and utilized the Dual-Glo Luciferase Assay System (Promega) to monitor NICD production. Two stable cell lines, N2-CHO and DL-CHO, were established to express full-length mouse Notch2 and Delta respectively. Cells that expressed mouse Notch were also transfected with two plasmids, pTP1-Luc and pCMV-RLuc, to express firefly and Renilla luciferase. Expression of firefly luciferase was under the control of TP1 promoter that responded to NICD activation.
N2-CHO cells were seeded at 1×10^5/well in 24-well plates the day before transfection. On the second day, cells were double transfected with 3 μg/well pTP1-Luc (expressing firefly luciferase) and 0.3 ng/well pCMV-RLuc (expressing Renilla luciferase). After 6 H incubation, transfected N2-CHO cells were washed and DL-CHO cells (2×10^5 cells/well) were added.
Compounds were pre-mixed with DL-CHO cell suspension in a five-point curve. Typically, compound treatment was performed in duplicate with a serial 1:10 dilution (3 μM-0.3 nM) in DMSO. The final concentration of DMSO in a given culture was 1%. Controls included non-transfected cells and transfected cells treated with a GSI or DMSO only. Luciferase assays were performed after 16 H co-culture and compound treatment.
The luciferase assay was carried out according to manufacture's instructions. Briefly, cells were washed with PBS (Phosphate Buffered Saline), lysed with Passive Lysis Buffer (Promega), and incubated at room temperature for 20 min. Lysates were mixed with Dual-Glo Luciferase Reagent and the firefly luciferase activity was measured by reading the luminescence signal in the EnVision 2101 Multilabel reader. Dual-Glo Stop & Glo Reagent was then added to each well and the Renilla luciferase signal was measured.

[3] = tested on: Aβ42; assay: Method 2: Aβ42 Alphalisa in supernatant of SKNBE2 cells carrying APP 695-wild type (Table 7c); assay type: cell-based; details: Method 2, Alphalisa, overnight incubation
Method in brief: (§1)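 SKNBE2 cells expressing wild-type APP695 incubated overnight at 37° C with test compound, 10^4 cells/well. Supernatant Aβ42 (C-terminal JRF/cAβ42/26 with N-terminal JRF/AβN/25) and Aβtotal (JRF/AβN/25 with 4G8) quantified by AlphaLISA. IC50 from 4-parameter fit of percent of untreated control.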

[4] = tested on: Aβ42; assay: Method 1: Aβ42 sandwich ELISA in supernatant of SKNBE2 cells carrying APP 695-wild type (Tables 7a, 7b); assay type: cell-based
Method in brief: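 SKNBE2 cells expressing wild-type APP695 were exposed to compound for 18 hours. Secreted Aβ42 was quantified by sandwich ELISA with C-terminal-selective capture, biotinylated 3D6 detection and TMB read-out at 450 nm. IC50 came from 4-parameter fits of % inhibition or % of untreated control; WST-1 monitored toxicity.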

[5] = tested on: Aβtotal; assay: Method 2: Aβtotal Alphalisa in supernatant of SKNBE2 cells carrying APP 695-wild type (Table 7c); assay type: cell-based; details: Method 2, Alphalisa, overnight incubation
Method in brief: as §1

[6] = tested on: Aβtotal; assay: Method 1: Aβtotal sandwich ELISA in supernatant of SKNBE2 cells carrying APP 695-wild type (Tables 7a, 7b); assay type: cell-based
Method in brief: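 SKNBE2 cells expressing wild-type APP695 were exposed to compound for 18 Hours in Ultraculture with 1% glutamine. Aβtotal in the supernatant was read by 6E10-capture/biotinylated 4G8 sandwich ELISA with a fluorogenic peroxidase read-out, and WST-1 checked toxicity. IC50 came from a 4-parameter fit of percent inhibition or percent of control versus concentration.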

[7] = tested on: Aβtotal; assay: In vivo efficacy: Aβtotal lowering in brain after single oral dose (Table 8); details: mouse brain soluble fraction, ELISA, compared to untreated animals
From the text: (§2) To determine whether acute administration of an Aβ42 lowering agent would reduce Aβ42 levels in vivo, non-transgenic rodents, e.g. mice or rats were used. Alternatively, two to three month old Tg2576 mice expressing APP695 containing the “Swedish” variant can be used or a transgenic mouse model developed by Dr. Fred Van Leuven (K.U.Leuven, Belgium) and co-workers, with neuron-specific expression of a clinical mutant of the human amyloid precursor protein [V7171] (Moechars et al., 1999 J. Biol. Chem. 274, 6483). Young transgenic mice have high levels of Aβ in the brain but no detectable Aβ deposition. At approximately 6-8 months of age, the transgenic mice start to display spontaneous, progressive accumulation of β-amyloid (Aβ) in the brain, eventually resulting in amyloid plaques within the subiculum, hippocampus and cortex. Animals treated with the Aβ42 lowering agent were examined and compared to those untreated or treated with vehicle and brain levels of soluble Aβ42 and total Aβ would be quantitated by standard techniques, for example, using ELISA. Treatment periods varied from hours to days and were adjusted based on the results of the Aβ42 lowering once a time course of onset of effect could be established.
(§3) A typical protocol for measuring Aβ42 lowering in vivo is shown but it is only one of many variations that could be used to optimize the levels of detectable Aβ. For example, Aβ42 lowering compounds were formulated in 20% of Captisol® (a sulfobutyl ether of β-cyclodextrin) in water or 20% hydroxypropyl β cyclodextrin. The Aβ42 lowering agents were administered as a single oral dose or by any acceptable route of administration to overnight fasted animals. After four hours, the animals were sacrificed and Aβ42 levels were analysed.
(§4) Blood was collected by decapitation and exsanguinations in EDTA-treated collection tubes. Blood was centrifuged at 1900 g for 10 min at 4° C. and the plasma recovered and flash frozen for later analysis. The brain was removed from the cranium and hindbrain. The cerebellum was removed and the left and right hemisphere were separated. The left hemisphere was stored at −18° C. for quantitative analysis of test compound levels. The right hemisphere was rinsed with phosphate-buffered saline (PBS) buffer and immediately frozen on dry ice and stored at −80° C. until homogenization for biochemical assays.
(§5) Mouse brains were resuspended in 10 volumes of 0.4% DEA (diethylamine)/50 mM NaCl pH 10 (for non-transgenic animals) or 0.1% 3-[(3-cholamidopropyl)-dimethyl-ammonio]-1-propanesulfonate (CHAPS) in tris buffered saline (TBS) (for transgenic animals) containing protease inhibitors (Roche-11873580001 or 04693159000 per gram of tissue, e.g. for 0.158 g brain, add 1.58 ml of 0.4% DEA. All samples were sonicated for 30 sec on ice at 20% power output (pulse mode). Homogenates were centrifuged at 221.300×g for 50 min. The resulting high speed supernatants were then transferred to fresh tubes and were optionally further purified before the next step. A portion of the supernatant was neutralized with 10% 0.5 M Tris-HCl and this was used to quantify Aβtotal.
(§6) The obtained supernatants were purified with Water Oasis HLB reverse phase columns (Waters Corp., Milford, Mass.) to remove non-specific immunoreactive material from the brain lysates prior subsequent Aβ detection. Using a vacuum manifold, all solutions were passed through the columns at a rate of approximately 1 ml per minute, so the vacuum pressure was adjusted accordingly throughout the procedure. Columns were preconditioned with 1 ml of 100% MeOH, before equilibration with 1 ml of H2O. Non-neutralized brain lysates were loaded onto the columns. The loaded samples were then washed twice with the first wash performed with 1 ml of 5% MeOH, and the second wash with 1 ml of 30% MeOH. Finally, the Aβ was eluted from the columns and into 100×30 mm glass tubes, with a solution of 90% MeOH with 2% NH4OH. […]

[8] = tested on: Aβ42; assay: In vivo efficacy: Aβ42 lowering in brain after single oral dose (Table 8); details: mouse brain soluble fraction, ELISA, compared to untreated animals
From the text: as §2, §3, §4, §5, §6

[9] = Homo sapiens, SKNBE2, Table 7b, averaged IC50, non-linear regression of percentage of control vs log concentration, 4-parameter equation
[10] = Homo sapiens, Table 7a, SKNBE2 cells, compounds 18 h, XLfit 4-parameter fit of percent inhibition, top/bottom fixed to 100/0, hill slope 1
[11] = Table 7b, averaged IC50, non-linear regression of percentage of control vs log concentration, 4-parameter equation

Row | Compound | effect on the Notch-processing activity of the γ-secretase-complex (production of NICD) [1] | pIC50 [2] | pIC50 [4, 9] | pIC50 [6, 9] | melting point | Aβtotal (% Ctrl)_Mean [7] | pIC50 [4, 10] | Aβ42 (% Ctrl)_Mean [8] | pIC50 [6, 10] | further results
1 | CC(C)[C@H](O)C(=O)N[C@@H](C)C(=O)N[C@@H]1C(=O)N(C)CCc2ccccc21 [Semagacestat, (2S)-2-hydroxy-3-methyl-N-[(1S)-1-methyl-2-oxo-2-[[(1S)-2,3,4,5-tetrahydro-3-methyl-2-oxo-1H-3-benzazepin-1-yl]amino]ethyl]-butanamide, reference compound] | blocked | 7.40 |  |  |  |  |  |  |  | 
2 | COC(=O)c1cc(Nc2ccc(-c3ocnc3C)c(OC)c2)c2nc(CC(C)C)cn2c1 [Compound 162] |  |  | 7.60 | < 5.00 | 157.1 °C |  |  |  |  | pIC50 ([3]; Homo sapiens): 7.49; pIC50 ([5]; Homo sapiens): < 5.00
3 | COc1cc(Nc2nccc3c2nc(-c2ccc(F)cc2)n3C)ccc1-c1cnc(C)o1 [Compound 14] |  |  | 6.98 | < 5.52 | 204.9 °C | 91 % Ctrl | 6.96 | 78 % Ctrl | < 5.52 | 
4 | Cc1ncc(-c2ccc(Nc3cc(F)cc4c3nc(-c3ccc(F)cc3)n4C)cn2)o1 [Compound 106] | did not show an effect |  |  |  |  |  |  |  |  | pIC50 [3]: 7.62; pIC50 [4, 11]: 8.00; pIC50 [5]: < 5.00; pIC50 [6, 11]: < 6.00
5 | C[C@H](NC(=O)Cc1cc(F)cc(F)c1)C(=O)NC(C(=O)OC(C)(C)C)c1ccccc1 (stereo partly drawn) [DAPT, (2S)—N-[2-(3,5-difluorophenyl)acetyl]-L-alanyl-2-phenyl-glycine 1,1-dimethylethyl ester, reference compound] | blocked | 7.35 |  |  |  |  |  |  |  | 
6 | COc1cc(Nc2cccc3c2nc(-c2ccc(F)cc2)n3C)ccc1-c1cnn(C)c1 [Compound 13] |  |  | 7.20 | < 5.52 | 157.6 °C | 105 % Ctrl | 7.19 | 87 % Ctrl | < 5.52 | 
